# Experiments:
# [1] = target: T1, Gal4-human PPAR γ chimeric receptor protein (Homo sapiens, UniProt P37231)
# T1 sequence (P37231 176-477 isoform P37231-2): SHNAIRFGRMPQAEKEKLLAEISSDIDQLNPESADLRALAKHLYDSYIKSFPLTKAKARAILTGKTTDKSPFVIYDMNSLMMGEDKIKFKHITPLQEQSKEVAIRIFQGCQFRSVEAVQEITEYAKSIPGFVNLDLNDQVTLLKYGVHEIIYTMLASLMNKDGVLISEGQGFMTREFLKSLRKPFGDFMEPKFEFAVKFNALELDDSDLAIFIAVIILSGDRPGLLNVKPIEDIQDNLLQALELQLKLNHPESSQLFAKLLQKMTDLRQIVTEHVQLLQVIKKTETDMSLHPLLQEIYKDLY
# [2] = target: T2, Gal4-human PPAR α chimeric receptor protein (Homo sapiens, UniProt Q07869); assay type: cell-based
# T2 construct: the 167th serine (Ser) to the 468th tyrosine (Tyr) of the human PPAR α receptor; expressed in transfected cells
# T2 sequence (Q07869 167-468): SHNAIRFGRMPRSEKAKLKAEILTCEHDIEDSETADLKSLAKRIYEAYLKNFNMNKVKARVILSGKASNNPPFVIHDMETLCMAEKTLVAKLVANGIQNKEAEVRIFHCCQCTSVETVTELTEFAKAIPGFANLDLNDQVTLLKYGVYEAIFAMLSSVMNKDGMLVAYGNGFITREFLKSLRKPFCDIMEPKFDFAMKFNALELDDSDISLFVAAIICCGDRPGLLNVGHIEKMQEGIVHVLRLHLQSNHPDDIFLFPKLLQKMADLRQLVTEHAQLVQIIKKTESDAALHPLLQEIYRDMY
# [3] = target: T3, Gal4-human PPAR δ chimeric receptor protein (Homo sapiens, UniProt Q03181); assay type: cell-based
# T3 construct: the 139th serine (Ser) to the 441st tyrosine (Tyr) of the human PPAR δ receptor; expressed in transfected cells
# T3 sequence (Q03181 139-441): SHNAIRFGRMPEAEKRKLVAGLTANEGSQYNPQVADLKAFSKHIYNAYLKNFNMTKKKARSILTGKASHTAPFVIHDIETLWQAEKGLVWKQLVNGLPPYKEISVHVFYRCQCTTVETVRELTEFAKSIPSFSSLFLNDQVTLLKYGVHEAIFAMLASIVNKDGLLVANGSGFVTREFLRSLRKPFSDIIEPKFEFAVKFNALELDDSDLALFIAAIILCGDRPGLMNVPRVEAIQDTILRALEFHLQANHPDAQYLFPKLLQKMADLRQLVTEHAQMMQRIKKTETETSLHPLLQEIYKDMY
SMILES,cell death of PPAR γ ligand-responsive cells [1],cell death of PPAR α ligand-responsive cells [2],cell death of PPAR δ ligand-responsive cells [3]
Cc1cccc(Nc2cc(Cl)nc(SCC(=O)O)n2)c1C [Wy-14643],do not cause cell death,cause dose-dependent cell death,–
CCCCCC#CCC#CCC#CCC#CCCCC(=O)O [ETYA],–,cause dose-dependent cell death,do not cause cell death

# From patent US20050158775A1, “Novel plamid DNA comprising reoprter gene DNA and use of the same” (priority 1997, published 2005)
